{
  "source": "patent US20100160454A1",
  "about": "“ANTIMICROBIAL AGENTS, COMPOSITIONS AND PRODUCTS CONTAINING THE SAME, AND METHODS OF USING THE COMPOSITIONS AND PRODUCTS” (Eastman Chemical Company, priority 2008, published 2010)",
  "test_in_all_cases": "Microbiological challenge testing in BPW broth, graded subculture counts",
  "format_in_all_cases": "cell-based",
  "key": {"Aeromonas sp. Wild type": {"test_system": "Aeromonas sp. Wild type", "in_short": "(§1)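 Serial 1:10 dilutions were made in pH 7.2 phosphate buffer and spread-plated onto PCA, and colonies were counted after 48 h or more at 35 °C. In the challenge, BPW–dextrose tubes containing the test material received inoculum at 10^5–10^6 CFU/mL at time zero. Controls without test material served as reference.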"}, "[1]": {"test_system": "Bacillus subtilis Wild type", "in_short": "as §1"}, "[2]": {"test_system": "Burkholderia cepacia Wild type", "settings": "B. cepacia", "in_short": "as §1"}, "[3]": {"test_system": "Proteus vulgaris Wild type", "in_short": "as §1"}},
  "data": [
    {"molecule": "CC(O)CO", "note": "(stereo not drawn) [PG, propylene glycol]", "values": [
      {"measurement": "Aeromonas sp growth grade, 3 day", "setting": "Aeromonas sp. Wild type; 0.5% weight/volume", "value": "5 (More than 10,000 colonies estimated (thus more than 100,000 CFU/mL))"},
      {"measurement": "Aeromonas sp growth grade, 14 day", "setting": "Aeromonas sp. Wild type; 0.5% weight/volume", "value": "5 (More than 10,000 colonies estimated (thus more than 100,000 CFU/mL))"},
      {"measurement": "Aeromonas sp growth grade, 30 day", "setting": "Aeromonas sp. Wild type; 0.5% weight/volume", "value": "5 (More than 10,000 colonies estimated (thus more than 100,000 CFU/mL))"},
      {"measurement": "Aeromonas sp growth grade, 3 day", "setting": "Aeromonas sp. Wild type; 1.25% weight/volume", "value": "5 (More than 10,000 colonies estimated (thus more than 100,000 CFU/mL))"},
      {"measurement": "Aeromonas sp growth grade, 14 day", "setting": "Aeromonas sp. Wild type; 1.25% weight/volume", "value": "5 (More than 10,000 colonies estimated (thus more than 100,000 CFU/mL))"},
      {"measurement": "Aeromonas sp growth grade, 30 day", "setting": "Aeromonas sp. Wild type; 1.25% weight/volume", "value": "5 (More than 10,000 colonies estimated (thus more than 100,000 CFU/mL))"},
      {"measurement": "Aeromonas sp growth grade, 3 day", "setting": "Aeromonas sp. Wild type; 2.5% weight/volume", "value": "5 (More than 10,000 colonies estimated (thus more than 100,000 CFU/mL))"},
      {"measurement": "Aeromonas sp growth grade, 14 day", "setting": "Aeromonas sp. Wild type; 2.5% weight/volume", "value": "5 (More than 10,000 colonies estimated (thus more than 100,000 CFU/mL))"},
      {"measurement": "Aeromonas sp growth grade, 30 day", "setting": "Aeromonas sp. Wild type; 2.5% weight/volume", "value": "5 (More than 10,000 colonies estimated (thus more than 100,000 CFU/mL))"},
      {"measurement": "Aeromonas sp growth grade, 3 day", "setting": "Aeromonas sp. Wild type; 5.0% weight/volume", "value": "5 (More than 10,000 colonies estimated (thus more than 100,000 CFU/mL))"},
      {"measurement": "Aeromonas sp growth grade, 14 day", "setting": "Aeromonas sp. Wild type; 5.0% weight/volume", "value": "4 (1000 to 10,000 colonies countable (thus 10,000 CFU/mL to 100,000 CFU/mL))"},
      {"measurement": "Aeromonas sp growth grade, 30 day", "setting": "Aeromonas sp. Wild type; 5.0% weight/volume", "value": "4 (1000 to 10,000 colonies countable (thus 10,000 CFU/mL to 100,000 CFU/mL))"},
      {"measurement": "B. subtillis growth grade, 3 day", "setting": "[1]; 0.5% weight/volume", "value": "5 (More than 10,000 colonies estimated (thus more than 100,000 CFU/mL))"},
      {"measurement": "B. subtillis growth grade, 14 day", "setting": "[1]; 0.5% weight/volume", "value": "5 (More than 10,000 colonies estimated (thus more than 100,000 CFU/mL))"},
      {"measurement": "B. subtillis growth grade, 30 day", "setting": "[1]; 0.5% weight/volume", "value": "5 (More than 10,000 colonies estimated (thus more than 100,000 CFU/mL))"},
      {"measurement": "B. subtillis growth grade, 3 day", "setting": "[1]; 1.25% weight/volume", "value": "5 (More than 10,000 colonies estimated (thus more than 100,000 CFU/mL))"},
      {"measurement": "B. subtillis growth grade, 14 day", "setting": "[1]; 1.25% weight/volume", "value": "4 (1000 to 10,000 colonies countable (thus 10,000 CFU/mL to 100,000 CFU/mL))"},
      {"measurement": "B. subtillis growth grade, 30 day", "setting": "[1]; 1.25% weight/volume", "value": "4 (1000 to 10,000 colonies countable (thus 10,000 CFU/mL to 100,000 CFU/mL))"},
      {"measurement": "B. subtillis growth grade, 3 day", "setting": "[1]; 2.5% weight/volume", "value": "5 (More than 10,000 colonies estimated (thus more than 100,000 CFU/mL))"},
      {"measurement": "B. subtillis growth grade, 14 day", "setting": "[1]; 2.5% weight/volume", "value": "4 (1000 to 10,000 colonies countable (thus 10,000 CFU/mL to 100,000 CFU/mL))"},
      {"measurement": "B. subtillis growth grade, 30 day", "setting": "[1]; 2.5% weight/volume", "value": "4 (1000 to 10,000 colonies countable (thus 10,000 CFU/mL to 100,000 CFU/mL))"},
      {"measurement": "B. subtillis growth grade, 3 day", "setting": "[1]; 5.0% weight/volume", "value": "5 (More than 10,000 colonies estimated (thus more than 100,000 CFU/mL))"},
      {"measurement": "B. subtillis growth grade, 14 day", "setting": "[1]; 5.0% weight/volume", "value": "4 (1000 to 10,000 colonies countable (thus 10,000 CFU/mL to 100,000 CFU/mL))"},
      {"measurement": "B. subtillis growth grade, 30 day", "setting": "[1]; 5.0% weight/volume", "value": "4 (1000 to 10,000 colonies countable (thus 10,000 CFU/mL to 100,000 CFU/mL))"},
      {"measurement": "Grade", "setting": "[2]; 0.5% (wt/vol), 3 day", "value": "5 (More than 10,000 colonies estimated (thus more than 100,000 CFU/mL))"},
      {"measurement": "Grade", "setting": "[2]; 0.5% (wt/vol), 14 day", "value": "5 (More than 10,000 colonies estimated (thus more than 100,000 CFU/mL))"},
      {"measurement": "Grade", "setting": "[2]; 0.5% (wt/vol), 30 day", "value": "5 (More than 10,000 colonies estimated (thus more than 100,000 CFU/mL))"},
      {"measurement": "Grade", "setting": "[2]; 1.25% (wt/vol), 3 day", "value": "5 (More than 10,000 colonies estimated (thus more than 100,000 CFU/mL))"},
      {"measurement": "Grade", "setting": "[2]; 1.25% (wt/vol), 14 day", "value": "5 (More than 10,000 colonies estimated (thus more than 100,000 CFU/mL))"},
      {"measurement": "Grade", "setting": "[2]; 1.25% (wt/vol), 30 day", "value": "5 (More than 10,000 colonies estimated (thus more than 100,000 CFU/mL))"},
      {"measurement": "Grade", "setting": "[2]; 2.5% (wt/vol), 3 day", "value": "5 (More than 10,000 colonies estimated (thus more than 100,000 CFU/mL))"},
      {"measurement": "Grade", "setting": "[2]; 2.5% (wt/vol), 14 day", "value": "5 (More than 10,000 colonies estimated (thus more than 100,000 CFU/mL))"},
      {"measurement": "Grade", "setting": "[2]; 2.5% (wt/vol), 30 day", "value": "5 (More than 10,000 colonies estimated (thus more than 100,000 CFU/mL))"},
      {"measurement": "Grade", "setting": "[2]; 5.0% (wt/vol), 3 day", "value": "4 (1000 to 10,000 colonies countable (thus 10,000 CFU/mL to 100,000 CFU/mL))"},
      {"measurement": "Grade", "setting": "[2]; 5.0% (wt/vol), 14 day", "value": "4 (1000 to 10,000 colonies countable (thus 10,000 CFU/mL to 100,000 CFU/mL))"},
      {"measurement": "Grade", "setting": "[2]; 5.0% (wt/vol), 30 day", "value": "4 (1000 to 10,000 colonies countable (thus 10,000 CFU/mL to 100,000 CFU/mL))"},
      {"measurement": "P. vulgaris growth grade, 3 day", "setting": "[3]; 0.5% weight/volume", "value": "4 (1000 to 10,000 colonies countable (thus 10,000 CFU/mL to 100,000 CFU/mL))"},
      {"measurement": "P. vulgaris growth grade, 13 day", "setting": "[3]; 0.5% weight/volume", "value": "4 (1000 to 10,000 colonies countable (thus 10,000 CFU/mL to 100,000 CFU/mL))"},
      {"measurement": "P. vulgaris growth grade, 30 day", "setting": "[3]; 0.5% weight/volume", "value": "4 (1000 to 10,000 colonies countable (thus 10,000 CFU/mL to 100,000 CFU/mL))"},
      {"measurement": "P. vulgaris growth grade, 3 day", "setting": "[3]; 1.25% weight/volume", "value": "4 (1000 to 10,000 colonies countable (thus 10,000 CFU/mL to 100,000 CFU/mL))"},
      {"measurement": "P. vulgaris growth grade, 13 day", "setting": "[3]; 1.25% weight/volume", "value": "4 (1000 to 10,000 colonies countable (thus 10,000 CFU/mL to 100,000 CFU/mL))"},
      {"measurement": "P. vulgaris growth grade, 30 day", "setting": "[3]; 1.25% weight/volume", "value": "4 (1000 to 10,000 colonies countable (thus 10,000 CFU/mL to 100,000 CFU/mL))"}
    ]}
  ]
}
